Results as given in patent US20220356163A1, “SMALL MOLECULE INHIBITORS OF Id PROTEINS” (MEMORIAL SLOAN KETTERING CANCER CENTER, priority 2019, published 2022).
pIC50: −log10 of the molar value.

Experiments:
[1] = tested on: SK-BR-3; assay: MTT assay, SK-BR-3; type: cell-based; conditions: Homo sapiens, 24 h, SK-BR-3, HER-2 +ve cell line, read-out: IC50 value after 24 hours of treatment
Description: The 4T1 murine mammary tumor cell line and nine breast cancer cell lines representing the major breast cancer subtypes (ER+, HER2+, and TNBC) including MDA-MB-157, MDA-MB-436, MDA-MB-231, MDA-MB-453, MDA-MB-361, BT-474, SK-BR-3, MCF-7 and T47-D will be grown in RPMI or DMEM (Dulbecco's Modified Eagle Medium) media supplemented with 10% FBS (fetal bovine serum), 1% penicillin-streptomycin and 1% L-Glutamine. Patient derived xenograft cell lines BR7, BR11, and IBT will be established directly from breast cancer bone metastases specimens surgically resected from patients with informed consent. BR7 and BR11 specimens will be obtained from ER positive (HER2 negative and PR negative) metastatic breast cancer patients, while the IBT specimen will be obtained from a metastatic, triple negative breast cancer patient. Fresh tumor tissues will be quickly washed with ice cold PBS and minced into about 1-3 mm pieces in MEM medium (without FBS) using sterile razor blades. […] The cells will be treated with either 100 μM DMSO, AGX51, or a compound of the present technology such as AGX-A. The cell morphology and growth will be monitored daily for 1 week by microscopy for changes in morphology or cell death. […] Absorbance will then measured at 570 nm using a plate reader (Synergy 2, BioTek). […]

[2] = target: T1, Id1 (59-104) (Mus musculus, UniProt P20067); assay: UV crosslinking of AGX51-XL2 to purified Id1 with mass spectrometry; type: binding; conditions: 10-fold excess of AGX51
T1 construct: 1 μg of purified Id1 (a.a.59-104) and 19.7 ng of AGX51-XL2; made in house; host or cells: E. coli Rosetta 2(DE3)
Procedure: Covalent binding of AGX51 derivative to Id1. An analog of AGX51 (AGX51-XL2) was used which contains a benzophenone photoreactive moiety. 1 μg of purified Id1 (a.a.59-104) and 19.7 ng of AGX51-XL2 (dissolved in DMSO) were combined, in the dark, and then exposed to UV light for 20 minutes, a negative control without UV exposure was also included. The samples were then run in the dark on a 15% denaturing gel, silver stained according to the manufacturers protocol (SilverQuest Staining Kit, Invitrogen, Grand Island, N.Y., USA) and bands were excised for mass spectrometry as described below.
In-gel digestion for mass spectrometry. In-gel digestion was performed using the method by Shevchenko et al. (Nat Protoc 1(6):2856-60 (2006)). Briefly, gel bands were excised, washed with 1:1 (Acetonitrile: 100 mM ammonium bicarbonate) for 30 minutes, dehydrated with 100% acetonitrile for 10 minutes until gel slices shrunk and excess acetonitrile was removed and slices were dried in a speed-vac for 10 minutes without heat. Gel slices were reduced with 5 mM DTT for 30 minutes at 56° C. in a thermostated mixer with gentle mixing, removed, allowed to cool to room temperature then alkylated with 11 mM IAA for 30 minutes in the dark. Gel slices were washed with 100 mM ammonium bicarbonate and 100% acetonitrile for 10 minutes each. […]

T1 sequence (P20067 59-104): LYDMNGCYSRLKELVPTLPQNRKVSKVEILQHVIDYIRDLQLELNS

Structure (SMILES): CCC(=O)N(CCC(c1ccc2c(c1)OCO2)c1ccccc1OC)Cc1ccccc1 (racemic) [AGX51, N-(3-(benzo[d][1,3]dioxol-5-yl)-3-(2-methoxyphenyl)propyl)-N-benzylpropionamide]
- pIC50 [1]: 4.44
- AGX51-XL2 binding to Id1 in presence of competitor [2]: significant decrease in AGX51-XL2 binding to Id1
